Laboratory results as given in paper PMC8453936, “Development and in vitro Profiling of Dual FXR/LTA4H Modulators” (Chemmedchem, 2021).

Molecular target: T1, PPARγ (Homo sapiens, UniProt P37231)
T1 construct: expressed in transfected cells; host or cells: HEK293T
T1 sequence (P37231 238-503 limits assumed): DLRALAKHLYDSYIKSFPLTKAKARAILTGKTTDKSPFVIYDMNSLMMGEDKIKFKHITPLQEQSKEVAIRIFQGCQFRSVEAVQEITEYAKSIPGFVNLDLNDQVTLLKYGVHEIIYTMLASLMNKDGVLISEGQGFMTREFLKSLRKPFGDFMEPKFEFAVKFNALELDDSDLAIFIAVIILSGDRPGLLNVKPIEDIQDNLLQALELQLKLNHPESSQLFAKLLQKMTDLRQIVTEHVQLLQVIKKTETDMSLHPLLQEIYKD
Test: Gal4 hybrid reporter gene assay PPARγ (HEK293T)
Format: cell-based
Conditions: relative activation, n=2
From the text: Isothermal titration calorimetry (ITC) confirmed binding of 8 and 19 to the recombinant proteins of both FXR LBD and LTA4H (Figure 1).
Figure 2 (a) Selectivity profiles of 8 and 19 over related nuclear receptors. […] (b) Activity of 8 and 19 in a WST‐1 cell viability assay in HepG2 cells. Data are mean±S.E.M., n=4. […] Data are mean±S.E.M. relative FXR activation (%), n≥3. […] Data are mean±S.E.M. relative LTA4H inhibition (%), n=3.
Hybrid reporter gene assays. Nuclear receptor modulation was determined in hybrid reporter gene assays using the Gal4‐fusion receptor plasmids pFA‐CMV‐hPPARα‐LBD,[39] pFA‐CMV‐hPPARγLBD,[39] pFA‐CMV‐hPPARδ‐LBD,[39] pFA‐CMV‐hLXRα‐LBD,[40] pFACMV‐hLXRβ‐LBD,[40] pFA‐CMV‐hRXRα‐LBD,[41] pFA‐CMV‐hRARα‐LBD,[41] pFA‐CMV‐hVDR‐LBD[41] and pFA‐CMV‐hCAR‐LBD[41] coding for the hinge region and ligand binding domain (LBD) of the canonical isoform of the respective nuclear receptor, pFR‐Luc (Stratagene) as reporter plasmid and pRL‐SV40 (Promega) for normalization of transfection eﬃciency. HEK293T cells were grown in DMEM high glucose, supplemented with 10 % FCS, sodium pyruvate (1 mM), penicillin (100 U/mL), and streptomycin (100 μg/mL) at 37 °C and 5 % CO2, and seeded in 96‐well plates (2.5 ⋅ 10^4 cells/well) the day before transfection. […] Luminescence was measured with an Infinite M200 luminometer (Tecan Deutschland GmbH, Germany). […]

PPARγ activation: weak PPARγ activation
Structure (SMILES): O=C(O)c1cccc(NC(=O)c2ccc(OCCCc3ccccc3)cc2)c1 [compound 8]
